In US6849602B1 (The Regents of the University of California, priority 1996, dated 2005):
Non-standard residues stand in square brackets, D forms with d. No end group written: not given here.

How the values were obtained:
[1] = test system: streptozotocin (STZ)-diabetic rats; assay: Formalin flinch test in streptozotocin-diabetic rats; format: in vivo, rat; parameters: hyperalgesia in formalin test / formalin-induced pain (allodynia): dose or concentration left out as unconfirmed
Procedure: Rats were made diabetic by a single intraperitoneal injection of streptozotocin (STZ) (50 mg/kg body weight, freshly dissolved in 0.9% sterile saline) to ablate pancreatic β cells and induce insulin deficiency as described in Calcutt et al., Pain 68:293-299 (1996). Two days later, diabetes was confirmed in streptozotocin-injected rats by measuring blood glucose levels. Streptozotocin-injected animals with a blood glucose concentration below 15 mmol/l were excluded from subsequent studies, according to the commonly accepted definition of non-fasting hyperglycemia in studies of diabetes in rats.
Both diabetic and control rats were studied at 8 weeks by analyzing the behavioral response to the noxious chemical formalin as an indicator of allodynia (Calcutt et al. supra (1996)). Briefly, rats received a subcutaneous injection of freshly-prepared formalin (50 μl of 0.5% solution in sterile saline) into the dorsal surface of the right hind paw. This concentration of formalin induces sub-maximal behavioral responses in control rats and allows detection of hyperalgesia in diabetic rats during phases Q and 2 (Calcutt et al., Eur. J. Pharmacol. 285:189-197 (1995). Animals were transferred to an observation chamber constructed to allow continuous visualization of the paws. The number of flinches during one minute periods were counted at 5 minute intervals for the next 60 minutes by an observer who was unaware of the treatment group of each animal. Phase 1 was defined as the initial measurement of flinching (1-2 and 5-6 minutes post injection); the Q (quiescent) phase as the measurements made at 10-11, 15-16 and 20-21 minutes; and Phase 2 as all subsequent measurements post injection, as previously defined for studies of diabetic rats (see, for example, Malmberg et al., Neurosci. […] Comparisons of activity during each phase were made by summing the flinches at measurement points within the phase. Diabetic rats gave an abnormal flinch response, as has been reported previously.
Peptide SEQ ID NO:2 was obtained in pure form by chemical synthesis, dissolved in sterile PBS and buffered to a neutral pH. Diabetic rats were divided in two groups of four animals each, which were administered saline or peptide SEQ ID NO:2, respectively.
The formalin testing was done after 4 weeks, of three time weekly injections, and testing was done after the last dose (last bar, FIG. 7).
This EXAMPLE was designed to determine whether prosaptide could also reverse conduction deficits and hyperalgesia in the formalin test pain model once these disorders are established in diabetic rats. SNCV was measured before onset of diabetes and 4-8 weeks later in groups of control, untreated diabetic and prosaptide-treated (200 μg/kg i.p. thrice weekly for the last 4 weeks) diabetic rats. Flinch responses to injection of formalin (50 μl or 0.5% or 5.0% solution) were followed for 60 min in control, 8 week untreated diabetic, […] with prosaptide (200 μg/kg i.p.) thrice weekly for the last 4 weeks (the last treatment being 48-72 hr pre-test).

[2] = test system: Newborn mouse cerebellar explants; assay: Ex vivo myelination assay in newborn mouse cerebellar explants; format: cell-based; settings: 10 μg/ml
Procedure: Newborn mouse cerebellar explants are prepared according to Satomi, Zool. Sci. 9:127-137 (1992). Neurite outgrowth and myelination are observed over 22 days in culture, during the period when the newborn mouse cerebellum normally undergoes neuronal differentiation and myelination begins. […] Neurite outgrowth and myelination in three control and three treated explants is assessed under a bright field microscope with a video camera. On the eighth day, cultures containing the peptides are thinner and more spread out than control cultures. […] Such projections are absent or less prominent in control cultures. […] Thus, the peptide of the invention induces myelination in differentiating cerebellum ex vivo.

[3] = 200 μg/kg intraperitoneal, two hours before 0.5% formalin

T[dA]LIDNNATEEILY [SEQ ID NO:2]
hyperalgesia during the formalin test ([1]; 200 μg/kg i.p. thrice weekly for the last 4 weeks, last treatment 48-72 hr pre-test): reduction in hyperalgesia
abnormal flinch response in Phase 1 [1, 3]: completely prevented the abnormal flinch response
amelioration of the flinch response in Phase 2 [1, 3]: 70%
hyperalgesia in formalin test ([1]; after 8 weeks of diabetes, i.p. 30 min before testing): reversed the hyperalgesia
hyperalgesia in the diabetic rat ([1]; given parenterally, FIG. 7): reverses hyperalgesia
hyperalgesia during the formalin test ([1]; single bolus 200 μg/kg i.p. 30 min pre-test, 8 week diabetic rats): effective in abolishing hyperalgesia
formalin-induced pain (allodynia) ([1]; three time weekly injections for 4 weeks): prevention of formalin-induced pain (allodynia)
myelinated axons in the subcortical white matter ([2]; 22 days, compared to control explants): significantly more myelinated axons
neurite outgrowth (long projections) in explants ([2]; day 15): contain many cells with long projections at the periphery of the explant
